Series [1] deals with T1, MDMX (1–134) (Homo sapiens, UniProt O15151).
T1 construct: tested against MDMX (1–134); His6-GST (TEV-cleavable) (N, cleaved yes); made in house; host or cells: E. coli Rosetta 2(DE3)pLysS
T1 sequence (O15151 1-134): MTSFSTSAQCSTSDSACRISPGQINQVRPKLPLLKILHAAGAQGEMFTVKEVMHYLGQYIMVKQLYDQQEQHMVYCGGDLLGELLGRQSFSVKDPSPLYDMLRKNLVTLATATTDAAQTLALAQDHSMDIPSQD
Description: Fluorescence polarisation direct binding assay, MDMX. The note with it: direct FP binding; 10 nM FITC peptide in Tris buffer pH 7.6; protein serially diluted 10 μM to 9 pM; 3 h, room temperature; quadratic ligand depletion fit; n = 3. As for the experimental part:
The binding properties of the peptide were assessed using a biophysical FP assay. Specifically, a direct binding assay was conducted to calculate the Kd values of the fluorescent peptide ligands binding to the target proteins (eqn (S3), ESI ^†).[29] […] The peptides were first tested for binding with MDM2 (1–138). […] Peptide solutions were made up to a concentration of 10 nM and varying concentrations of protein (10 μM to 9 pM) were incubated with the peptide with FP measurements taken after 3 h (Fig. 4). […] The final analogue examined for its binding of MDM2 was 5FITC, the diyne negative control. […]
resuspension buffer. […]
The His6-GST -tagged proteins were then cleaved with TEV while dialyzing into 330 mM NaCl, PBS, 5 mM BME for 20 hours at 4 °C. […] Protein concentration was measured at an absorbance of 595 nm with the Bio-rad Protein Assay Kit II using bovine serum albumin as a standard. […]
Fluorescence Polarisation Binding Assay
The binding properties of the peptides were assessed using a biophysical FP assay. […] All FP measurements were performed on a microplate reader (CLARIOstar) in black 384-well microplates with 20 μL of sample solution per well. […]
was added and serially diluted from 10 μM to 9 pM. […] Plates were placed in a PerkinElmer Victor X5 plate reader with excitation measured at 531 nm and emission measured at 595 nm. […]

In series [2] the target is T2, MDM2 (1–138) (Homo sapiens, UniProt Q00987).
T2 construct: His6-GST (TEV-cleavable) (N, cleaved yes); made in house; host or cells: E. coli Rosetta 2(DE3)pLacI
The series is described as follows: Fluorescence polarisation direct binding assay, MDM2. The note with it: direct FP binding; 10 nM FITC peptide in Tris buffer pH 7.6; protein serially diluted 10 μM to 9 pM; 3 h, room temperature; quadratic ligand depletion fit; n = 3.
Description: The binding properties of the peptides were assessed using a biophysical FP assay. Specifically, a direct binding assay was conducted to calculate the Kd values of the fluorescent peptide ligands binding to the target proteins. Fluorescently labelled peptides were tested for binding to MDM2 (1-138) and MDMX (1-134). […] All FP measurements were performed on a microplate reader (CLARIOstar) in black 384-well microplates with 20 μL of sample solution per well.
was added and serially diluted from 10 μM to 9 pM. Peptide (10 nM in Tris buffer pH 7.6) was then added to all wells and mixed. The sample were left to incubate at room temperature for 3 hours. Plates were placed in a PerkinElmer Victor X5 plate reader with excitation measured at 531 nm and emission measured at 595 nm. The raw data was normalized using baseline correction, where the baseline was defined as the fluorescence polarisation measured in the absence of peptide. Normalised data were then plotted in Prism 7.0 and fitted by using the quadratic ligand depletion model (Equation S3).
Y is the fluorescent polarisation signal measured at each datapoint. […]

A short description of series [3]: Circular dichroism spectroscopy, percentage helicity. Format: physicochemical. The settings on record: CD in PBS pH 7.4, room temperature; from MRE at 222 nm, equations of Luo and Baldwin; peptides analysed at 25 μM and 50 μM. As for the experimental part: Following the successful synthesis of the diyne peptide 4, it was important to identify the effect of the modified staple on the α-helical nature of the peptide. The effectiveness of the diyne staple as an α-helical constraint was assessed by CD. Experiments were set out to directly compare the diyne stapled peptide 4 to the alkene stapled peptides (cis-2 and trans-3), with the linear peptide 1 employed as a control. CD was performed at two concentrations to investigate whether peptide concentration influenced helicity, as coiled-coil structures are known to increase helicity.[25] Peptide concentrations were quantified using a NanoDrop™ One Microvolume UV-Vis spectrophotometer using the UV absorption of the peptides at 280 nm.[26] Extinction coefficients of the peptides were calculated from Trp and Tyr residues and the Beer–Lambert law employed to calculate the concentrations.
Each of the peptides (1–4) were analysed at 25 μM and 50 μM in phosphate buffered saline (PBS, pH 7.4) (Fig. 3). CD spectra were measured from 190–260 nm and the characteristic α-helical negative maxima examined for their intensity at 208 nm and 222 nm.[27] […] This is to be expected due to the random coil nature of 1. […] Helicity calculations were performed following conversion of the measured degrees of ellipticity (θ) data to mean residue ellipticity (MRE) (eqn (S1), ESI ^†). […]
Cell Permeability Fluorescence Assay […]

Residues, ends and D or L forms follow the SMILES beside them. *: point of attachment. FITC = O=C1OC2(c3ccc(O)cc3Oc3cc(O)ccc32)c2ccc(NC(=S)*)cc21; Ahx = NCCCCCC(=O)O

T2 sequence (Q00987 1-138): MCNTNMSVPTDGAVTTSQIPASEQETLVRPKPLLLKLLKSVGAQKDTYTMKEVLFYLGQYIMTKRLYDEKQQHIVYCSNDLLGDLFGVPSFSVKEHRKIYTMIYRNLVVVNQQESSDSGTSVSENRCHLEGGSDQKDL

`CC(C)C[C@H](NC(=O)CCCCCNC(=S)Nc1ccc2c(c1)C(=O)OC21c2ccc(O)cc2Oc2cc(O)ccc21)C(=O)N[C@H](C(=O)N[C@@H](Cc1ccccc1)C(=O)N[C@@H](CCC(=O)O)C(=O)N[C@@H](Cc1c[nH]cn1)C(=O)N[C@@H](Cc1ccc(O)cc1)C(=O)N[C@@H](Cc1c[nH]c2ccccc12)C(=O)N[C@@H](C)C(=O)N[C@@H](CCC(N)=O)C(=O)N[C@@H](CC(C)C)C(=O)N[C@H](C(=O)N[C@@H](CO)C(N)=O)[C@@H](C)O)[C@@H](C)O` [1FITC] ({FITC-Ahx}-LTFEHYWAQLTS-NH2) displayed a dissociation constant (Kd) in series [1] of 20.1 ± 0.23 nM.

In series [2], `CC(C)C[C@H](NC(=O)CCCCCNC(=S)Nc1ccc2c(c1)C(=O)OC21c2ccc(O)cc2Oc2cc(O)ccc21)C(=O)N[C@H](C(=O)N[C@@H](Cc1ccccc1)C(=O)N[C@@]1(C)CCCCCC#CC#CCCCCC[C@@](C)(C(=O)N[C@@H](CO)C(=O)N[C@@H](C)C(=O)N[C@@H](C)C(N)=O)NC(=O)[C@H](CC2CCC2)NC(=O)[C@H](CCC(N)=O)NC(=O)[C@H](C)NC(=O)[C@H](Cc2c[nH]c3ccccc23)NC(=O)[C@H](Cc2ccc(O)cc2)NC(=O)[C@H](CCC(=O)O)NC1=O)[C@@H](C)O` [4FITC] showed a dissociation constant Kd of 1.39 ± 0.08 nM.

In the case of “Ac-LTFR8EYWAQ(Cba)S5SAA-NH2 (sidechain bridge or staple) [compound 2, i, i + 7 alkene stapled peptide ATSP-7041 (2/3), cis-isomer, acetylated]”, the percentage helicity in series [3] is reported as 48%.

For “Ac-LTFS7EYWAQ(Cba)S7SAA-NH2 (sidechain bridge or staple) [compound 4, i, i + 7 diyne-girder stapled peptide analogue of ATSP-7041, acetylated]”, the percentage helicity in series [3] is reported as 59%.

(Values after publication PMC11741006, “Raman active diyne-girder conformationally constrained p53 stapled peptides bind to MDM2 for visualisation without fluorophores” (RSC Chemical Biology, 2025).)
